Assay results taken from paper PMC8248988, “A signal capture and proofreading mechanism for the KDEL-receptor explains selectivity and dynamic range in ER retrieval” (eLife, 2021).

Experiments:
Format in all cases: cell-based
Details in all cases: COS-7 cells
human KDELR1 N54K/E117Q = target: T1, human KDELR1 N54K/E117Q (Homo sapiens, UniProt P24390, E117Q/N54K); assay: ER retrieval assay, KDELR1 N54K/E117Q-GFP
T1 construct: expressed in transfected cells; host or cells: COS-7
From the text: (§1) To create KDELR1-GFP and KDELR2-GFP, the reading frames for Homo sapiens KDELR1 (Uniprot: P24390) and KDELR2 (Uniprot: P33947) were cloned into the pEF5/FRT low level mammalian expression vector with a C-terminal 20 amino acid linker made up of 5 copies of Gly-Ser-Ser-Ser followed by GFP. Specific point mutations were introduced using the Quickchange protocol (Stratagene) and are described in the key resources table and figures. To create the mScarlet-KDEL^sec ligand construct, mScarlet with an N-terminal hGH signal peptide and the 16 C-terminal residues of human BiP at its C-terminus, containing the KDEL signal, was cloned into the pcDNA3.1 vector. […] The Golgi marker protein TGN46 was detected by antibody (sheep anti-TGN46 AHP500G; AbD Serotec) and an Alexa 647 conjugated secondary anti-sheep secondary (A-21448, Invitrogen). In Figure 1d and e, endogenous KDELR was detected by antibody (mouse anti-KDELR ADI-VAA-PT048; Enzo Life Sciences) and Alexa 488 conjugated anti-mouse secondary antibody (A-21202, Invitrogen). For retrieval assays in other figures, KDELR-GFP fusion proteins were directly detected by fluorescence. The mScarlet-xDEL fusion proteins were directly detected by fluorescence. […] The fraction of KDEL receptor in the Golgi apparatus was calculated by dividing the Golgi signal by the total cell signal. […]

human KDELR1 D50N = target: T2, human KDELR1 D50N (Homo sapiens, UniProt P24390, D50N); assay: ER retrieval assay, KDELR1 D50N-GFP
T2 construct: expressed in transfected cells; host or cells: COS-7
T2 sequence (P24390 whole entry D50N): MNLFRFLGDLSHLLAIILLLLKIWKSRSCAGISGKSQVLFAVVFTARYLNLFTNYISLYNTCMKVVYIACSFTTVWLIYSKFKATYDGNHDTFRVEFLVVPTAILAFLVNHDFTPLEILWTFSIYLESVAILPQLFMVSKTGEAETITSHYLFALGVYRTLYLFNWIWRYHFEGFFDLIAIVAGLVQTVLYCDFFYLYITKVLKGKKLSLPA
From the text: as §1

[1] = target: T3, human KDELR1 D50N/N54K/E117Q/W120A (Homo sapiens, UniProt P24390, D50N/E117Q/N54K/W120A); assay: ER retrieval assay, KDELR1 D50N/N54K/E117Q/W120A-GFP
T3 construct: expressed in transfected cells; host or cells: COS-7
T3 sequence (P24390 whole entry D50N/N54K/E117Q/W120A): as the sequence (P24390 whole entry D50N) above, with N54K, E117Q, W120A counted along it
From the text: as §1

[2] = target: T4, human KDELR1 D50N/N54K/E117Q (Homo sapiens, UniProt P24390, D50N/E117Q/N54K); assay: ER retrieval assay, KDELR1 D50N/N54K/E117Q-GFP (K. lactis like)
T4 construct: expressed in transfected cells; host or cells: COS-7
T4 sequence (P24390 whole entry D50N/N54K/E117Q): as the sequence (P24390 whole entry D50N) above, with N54K, E117Q counted along it
From the text: as §1

T1 sequence (P24390 whole entry N54K/E117Q): as the sequence (P24390 whole entry D50N) above, with N50D, N54K, E117Q counted along it

- ligand-induced receptor retrieval to the ER (in words) [2]: improved the response
Substance: ADEL [pcDNA3.1 hGHss-mScarlet-H. sapiens BiP639-654K651A (ADEL^SEC), secreted mScarlet fusion with human BiP C-terminus, ADEL signal]
- ligand-induced receptor retrieval to the ER (in words) (human KDELR1 N54K/E117Q): switched specificity towards ADEL and DDEL
- ligand-induced receptor retrieval to the ER (in words) (human KDELR1 D50N): abolished the response to all signal variants
- ligand-induced receptor retrieval to the ER (in words) [1]: does not relocate from the Golgi to the ER
